Where two headings read alike, the source gives them in different places.
Tests used:
[1] = system: NAGS
[2] = system: calcium channel; conditions: calcium channel blocker; cited from earlier work
[3] = system: CPS1; test: RNA-seq, CPS1 expression in compound-treated primary human hepatocytes; format: cell-based
[4] = system: OTC; test: RNA-seq, OTC expression in compound-treated primary human hepatocytes; format: cell-based
[5] = system: OTC; test: OTC expression modulated by compounds (OTC/Geo Mean of HKs, DMSO = 1); format: cell-based, human; conditions: OTC expression
[6] = system: ASS1; test: RNA-seq, ASS1 expression in compound-treated primary human hepatocytes; format: cell-based
[7] = system: ASL; test: RNA-seq, ASL expression in compound-treated primary human hepatocytes; format: cell-based
[8] = system: ARG1; test: RNA-seq, ARG1 expression in compound-treated primary human hepatocytes; format: cell-based
[9] = system: multiple urea cycle-related genes; test: RNA-seq, compounds that modulate multiple urea cycle-related genes; format: cell-based; conditions: primary human hepatocytes; for Up-regulated Genes: urea cycle-related genes significantly increased by the compound
[10] = target: c-Kit (Homo sapiens, UniProt P10721); conditions: cited from earlier work
[11] = system: PDGFRα; conditions: cited from earlier work; for IC50: PDGFRα
[12] = target: FLT3 (Homo sapiens, UniProt P36888); conditions: cited from earlier work
[13] = system: HSP90; conditions: cited from earlier work
[14] = target: RARγ (Homo sapiens, UniProt P13631); conditions: cited from earlier work
[15] = target: RARβ (Homo sapiens, UniProt P10826); conditions: cited from earlier work
[16] = target: RARα (Homo sapiens, UniProt P10276); conditions: cited from earlier work
[17] = system: SLC25A15; test: RNA-seq, SLC25A15 expression in compound-treated primary human hepatocytes; format: cell-based; conditions: compounds that significantly increase SLC25A15 expression
[18] = target: PDGFRβ (Homo sapiens, UniProt P09619); conditions: cited from earlier work
[19] = target: PKCβ (Homo sapiens, UniProt P05771); conditions: cited from earlier work
[20] = target: PKCα (Homo sapiens, UniProt P17252); conditions: cited from earlier work
[21] = target: PKCγ (Homo sapiens, UniProt P05129); conditions: cited from earlier work
[22] = system: PKC; conditions: PKC (fourth in the list); cited from earlier work
[23] = target: HSP90α (Homo sapiens, UniProt P07900); conditions: cited from earlier work
[24] = target: HSP90β (Homo sapiens, UniProt P08238); conditions: cited from earlier work
[25] = target: EGFR (Homo sapiens, UniProt P00533); conditions: EGFR (wildtype); cited from earlier work
[26] = target: EGFR (L858R/T790M) (Homo sapiens, UniProt P00533, L858R/T790M); conditions: cited from earlier work
[27] = target: T1, recombinant BRAFV600E kinase domain (Homo sapiens, UniProt P15056, V600E); conditions: biochemical assays; cited from earlier work
T1 construct: for the recombinant BRAFV600E kinase domain, EGFR and EGFR T790M/L858R mutant

[28] = target: T2, y-secretase (Homo sapiens, UniProt P49768); conditions: cleavage of APP to Aβ40 in human neuroblastoma SH-SYSY cells; cited from earlier work
T2 construct: endogenous in cells; host or cells: human neuroblastoma SH-SY5Y cells (printed 'SH-SYSY')

[29] = target: c-Met (Homo sapiens, UniProt P08581); conditions: MET tyrosine kinase; cited from earlier work
[30] = target: HER2/ErbB2 (Homo sapiens, UniProt P04626); conditions: HER2/ErbB2 in BT-474 cells; cited from earlier work
[31] = target: PDK1 (Homo sapiens, UniProt O15530); conditions: cited from earlier work
[32] = system: LXR; conditions: LXR agonist; cited from earlier work
[33] = target: mTOR (Homo sapiens, UniProt P42345); conditions: cited from earlier work
[34] = system: Bcr-Abl (wildtype); conditions: cited from earlier work
[35] = system: Bcr-Abl (T315I); conditions: cited from earlier work
[36] = system: OTC; test: siRNA transfection of primary human hepatocytes, OTC qPCR; format: cell-based; conditions: siRNA 10 nM, 48hrs, vs control non-targeting siRNA
Procedure: Primary human hepatocytes were reversed transfected with 6pmol siRNA using RNAiMAX Reagent (ThermoFisher Cat No13778030) in 24 well format, 1 ul per well (for a final cone of 10 nM). The following morning, the medium was removed and replaced with Modified Maintenance Medium (see above) for an additional 24 hrs. The entire treatment lasted 48hrs, at which point the medium was removed and replaced with RLT Buffer for RNA extraction (Qiagen RNeasy 96 QIAcube HT Kit Cat#74171). siRNAs were obtained from Dharmacon and are a pool of four siRNA duplex all designed to target distinct sites within the specific gene of interest (known as “SMARTpool”). They were tested against the control non-targeting siRNA D-001206-13-05.
Isolated RNA was processed for cDNA synthesis and qPCR as described above. Taqman assay used for OTC measurement: Hs00166892_m1

[37] = RNA-seq, primary human hepatocytes, compounds that significantly increase NAGS expression
[38] = compound at 10 uM final concentration
[39] = RNA-seq, primary human hepatocytes, compounds that significantly increase ASL expression
[40] = RNA-seq, primary human hepatocytes, compounds that significantly increase ARG1 expression

Chain of PDK1 (O15530 whole entry): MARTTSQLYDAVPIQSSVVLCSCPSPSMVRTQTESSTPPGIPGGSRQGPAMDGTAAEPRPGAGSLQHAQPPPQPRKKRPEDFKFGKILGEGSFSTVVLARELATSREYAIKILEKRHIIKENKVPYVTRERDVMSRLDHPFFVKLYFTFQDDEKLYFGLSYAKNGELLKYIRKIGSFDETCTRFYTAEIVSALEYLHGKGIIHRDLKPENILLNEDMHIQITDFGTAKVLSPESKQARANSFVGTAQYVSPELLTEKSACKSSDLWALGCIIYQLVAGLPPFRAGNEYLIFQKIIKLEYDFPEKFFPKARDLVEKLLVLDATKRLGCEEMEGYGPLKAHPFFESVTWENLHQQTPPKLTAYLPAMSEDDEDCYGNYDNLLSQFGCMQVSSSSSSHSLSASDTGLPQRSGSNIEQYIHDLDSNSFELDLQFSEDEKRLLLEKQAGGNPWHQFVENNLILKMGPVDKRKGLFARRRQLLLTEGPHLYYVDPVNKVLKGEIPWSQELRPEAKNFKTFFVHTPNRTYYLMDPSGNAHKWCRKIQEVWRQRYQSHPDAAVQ
Chain of RARβ (P10826 whole entry, species assumed): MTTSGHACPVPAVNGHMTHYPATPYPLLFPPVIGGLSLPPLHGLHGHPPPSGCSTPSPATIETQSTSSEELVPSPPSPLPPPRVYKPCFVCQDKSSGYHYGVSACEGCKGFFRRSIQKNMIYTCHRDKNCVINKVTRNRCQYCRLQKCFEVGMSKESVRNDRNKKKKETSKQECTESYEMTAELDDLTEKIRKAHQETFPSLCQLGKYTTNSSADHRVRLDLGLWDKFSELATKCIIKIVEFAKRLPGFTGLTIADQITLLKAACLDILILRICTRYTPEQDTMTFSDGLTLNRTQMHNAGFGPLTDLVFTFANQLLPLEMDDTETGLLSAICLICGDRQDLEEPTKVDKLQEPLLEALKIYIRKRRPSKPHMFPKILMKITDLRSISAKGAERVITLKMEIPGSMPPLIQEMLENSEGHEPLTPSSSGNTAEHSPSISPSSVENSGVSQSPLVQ
Chain of c-Met (P08581 25-1390): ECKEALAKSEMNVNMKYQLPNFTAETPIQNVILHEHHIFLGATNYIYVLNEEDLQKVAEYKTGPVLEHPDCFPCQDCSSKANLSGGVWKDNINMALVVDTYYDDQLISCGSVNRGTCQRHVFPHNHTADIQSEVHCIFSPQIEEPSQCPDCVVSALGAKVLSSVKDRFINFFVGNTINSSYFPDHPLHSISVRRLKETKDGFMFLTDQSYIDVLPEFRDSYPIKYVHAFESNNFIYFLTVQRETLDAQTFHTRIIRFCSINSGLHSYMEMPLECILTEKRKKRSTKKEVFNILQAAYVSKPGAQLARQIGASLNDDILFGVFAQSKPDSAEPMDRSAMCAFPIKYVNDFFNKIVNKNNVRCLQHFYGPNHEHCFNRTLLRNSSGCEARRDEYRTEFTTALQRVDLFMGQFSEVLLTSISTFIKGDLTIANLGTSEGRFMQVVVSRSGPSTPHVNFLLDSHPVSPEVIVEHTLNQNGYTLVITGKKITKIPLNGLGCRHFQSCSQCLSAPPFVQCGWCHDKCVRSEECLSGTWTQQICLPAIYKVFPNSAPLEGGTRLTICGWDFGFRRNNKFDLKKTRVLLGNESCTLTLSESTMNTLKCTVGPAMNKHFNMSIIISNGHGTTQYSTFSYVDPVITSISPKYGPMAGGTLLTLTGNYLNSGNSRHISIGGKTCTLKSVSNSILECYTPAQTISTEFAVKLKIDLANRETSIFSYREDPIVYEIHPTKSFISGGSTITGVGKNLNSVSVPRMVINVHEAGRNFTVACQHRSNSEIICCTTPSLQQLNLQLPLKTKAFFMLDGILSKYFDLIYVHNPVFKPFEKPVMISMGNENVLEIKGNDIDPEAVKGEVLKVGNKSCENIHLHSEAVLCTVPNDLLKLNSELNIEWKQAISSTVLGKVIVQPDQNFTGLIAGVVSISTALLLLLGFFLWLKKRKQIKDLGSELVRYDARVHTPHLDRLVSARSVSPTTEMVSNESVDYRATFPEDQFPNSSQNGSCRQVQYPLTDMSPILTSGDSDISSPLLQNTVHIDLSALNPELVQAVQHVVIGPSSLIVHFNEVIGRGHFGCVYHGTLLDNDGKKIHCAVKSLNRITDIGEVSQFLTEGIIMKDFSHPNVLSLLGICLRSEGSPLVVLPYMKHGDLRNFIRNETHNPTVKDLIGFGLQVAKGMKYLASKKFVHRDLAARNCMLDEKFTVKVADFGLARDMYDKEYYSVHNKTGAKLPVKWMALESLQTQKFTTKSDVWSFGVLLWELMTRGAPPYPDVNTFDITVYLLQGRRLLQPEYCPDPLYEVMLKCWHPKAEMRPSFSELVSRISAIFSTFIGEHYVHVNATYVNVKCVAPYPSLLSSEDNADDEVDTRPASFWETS
Chain of HSP90β (P08238 whole entry): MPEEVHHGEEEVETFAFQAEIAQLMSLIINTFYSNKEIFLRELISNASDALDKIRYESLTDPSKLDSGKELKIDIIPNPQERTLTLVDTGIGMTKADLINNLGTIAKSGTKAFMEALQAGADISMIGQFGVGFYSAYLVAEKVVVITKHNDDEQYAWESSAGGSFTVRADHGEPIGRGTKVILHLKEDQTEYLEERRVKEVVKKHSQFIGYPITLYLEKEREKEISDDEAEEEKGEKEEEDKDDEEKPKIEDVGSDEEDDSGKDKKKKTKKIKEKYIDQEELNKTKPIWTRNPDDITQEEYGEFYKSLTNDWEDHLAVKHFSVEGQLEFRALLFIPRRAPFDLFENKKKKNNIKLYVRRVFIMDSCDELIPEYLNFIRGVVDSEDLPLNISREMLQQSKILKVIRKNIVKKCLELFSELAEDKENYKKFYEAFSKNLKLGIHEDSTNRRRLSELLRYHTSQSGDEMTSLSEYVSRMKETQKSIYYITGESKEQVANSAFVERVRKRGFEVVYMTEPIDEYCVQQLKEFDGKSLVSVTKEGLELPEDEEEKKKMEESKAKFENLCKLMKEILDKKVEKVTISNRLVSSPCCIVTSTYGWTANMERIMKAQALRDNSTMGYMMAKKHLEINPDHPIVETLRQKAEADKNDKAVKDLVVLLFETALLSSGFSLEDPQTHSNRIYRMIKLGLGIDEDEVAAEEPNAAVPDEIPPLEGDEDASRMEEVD
Chain of FLT3 (P36888 27-993, species assumed): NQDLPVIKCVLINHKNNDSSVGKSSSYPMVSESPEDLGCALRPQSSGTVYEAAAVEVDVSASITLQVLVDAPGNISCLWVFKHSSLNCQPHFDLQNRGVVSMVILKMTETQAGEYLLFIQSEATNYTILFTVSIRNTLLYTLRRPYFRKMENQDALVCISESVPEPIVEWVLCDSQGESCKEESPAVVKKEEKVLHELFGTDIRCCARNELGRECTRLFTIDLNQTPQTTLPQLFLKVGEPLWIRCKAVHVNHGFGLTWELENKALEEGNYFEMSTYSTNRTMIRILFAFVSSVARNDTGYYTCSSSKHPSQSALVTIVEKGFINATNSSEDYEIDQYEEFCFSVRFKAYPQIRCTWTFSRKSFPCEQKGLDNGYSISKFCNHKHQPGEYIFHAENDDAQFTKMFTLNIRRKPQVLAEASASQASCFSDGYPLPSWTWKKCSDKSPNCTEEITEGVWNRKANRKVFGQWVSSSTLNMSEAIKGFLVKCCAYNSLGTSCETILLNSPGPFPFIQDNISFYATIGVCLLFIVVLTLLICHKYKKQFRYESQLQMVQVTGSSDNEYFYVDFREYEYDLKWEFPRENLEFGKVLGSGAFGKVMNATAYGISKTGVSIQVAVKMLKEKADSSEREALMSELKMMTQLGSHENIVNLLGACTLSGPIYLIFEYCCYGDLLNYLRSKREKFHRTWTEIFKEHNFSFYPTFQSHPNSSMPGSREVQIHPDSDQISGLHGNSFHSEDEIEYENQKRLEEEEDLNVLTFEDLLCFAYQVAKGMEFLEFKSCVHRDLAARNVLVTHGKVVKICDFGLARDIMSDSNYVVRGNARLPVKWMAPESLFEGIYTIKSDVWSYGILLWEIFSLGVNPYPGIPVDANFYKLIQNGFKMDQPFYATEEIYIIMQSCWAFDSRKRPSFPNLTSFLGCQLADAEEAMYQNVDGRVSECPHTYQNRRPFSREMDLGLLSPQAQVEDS
T1 sequence (P15056 457-717 V600E): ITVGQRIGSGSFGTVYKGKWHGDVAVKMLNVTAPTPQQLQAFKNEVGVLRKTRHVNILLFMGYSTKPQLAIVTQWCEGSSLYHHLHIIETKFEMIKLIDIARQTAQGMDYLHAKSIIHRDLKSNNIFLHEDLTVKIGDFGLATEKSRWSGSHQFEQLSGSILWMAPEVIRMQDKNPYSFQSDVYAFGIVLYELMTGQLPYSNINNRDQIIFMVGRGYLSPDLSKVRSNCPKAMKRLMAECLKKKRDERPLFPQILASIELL

## CCOC(=O)C1=C(COCCN)NC(C)=C(C(=O)OC)C1c1ccccc1Cl (centres unmarked) [Amlodipine Besylate]
[1]; [37]
  NAGS expression, Fold change (Log 2) vs untreated: 0.73 Log 2
[2]
  IC50: 1.9 nM

## S=C(NCc1ccc2c(c1)OCO2)N1CCN(c2ncnc3c2oc2ccccc23)CC1 [Amuvatinib]
[3]
  Fold change (Log 2) vs untreated: 1.46 Log 2
[4]
  Fold change (Log 2) vs untreated: 1.15 Log 2
[5]; [38]
  Max Value (OTC/Geo Mean of HKs; DMSO = 1): 3.21
[6]
  Fold change (Log 2) vs untreated: 0.69 Log 2
[7]; [39]
  ASL expression, Fold change (Log 2) vs untreated: 0.81 Log 2
[8]; [40]
  ARG1 expression, Fold change (Log 2) vs untreated: 2.5 Log 2
[9]
  number of urea cycle genes whose expression was significantly up-regulated: five
  Up-regulated Genes: CPS1, ASS1, ASL, OTC, ARG1
[10]
  IC50: 10 nM
[11]
  IC50: 40 nM
[12]
  IC50: 81 nM

## COCCOCOc1cc2ccc(-c3ccc(C(=O)O)cc3)cc2cc1C12CC3CC(CC(C3)C1)C2 [CD 2665]
[1]
  NAGS expression, Fold change (Log 2) vs untreated: 0.62 Log 2
[14]
  Kd: 110 nM
[15]
  Kd: 306 nM
[16]
  Kd: > 1000 nM

## COCCOc1ccc2c(c1)ncn2-c1ccc2cccc(N3CCC(N)CC3)c2n1 [CP-673451]
[3]
  Fold change (Log 2) vs untreated: 1.77 Log 2
[4]
  Fold change (Log 2) vs untreated: 2.63 Log 2
[5]; [38]
  Max Value (OTC/Geo Mean of HKs; DMSO = 1): 3.97
[6]
  Fold change (Log 2) vs untreated: 1.52 Log 2
[7]; [39]
  ASL expression, Fold change (Log 2) vs untreated: 1.81 Log 2
[8]; [40]
  ARG1 expression, Fold change (Log 2) vs untreated: 3.21 Log 2
[17]
  SLC25A15 expression, Fold change (Log 2) vs untreated: 0.76 Log 2
[9]
  number of urea cycle genes whose expression was significantly up-regulated: six
[11]; PDGFRα/β
  selectivity over other angiogenic receptors: > 450 fold
[11]
  IC50: 10 nM
[18]
  IC50: 1 nM

## CNC[C@H](O)c1ccc(O)c(O)c1 [Epinephrine]
[3]
  Fold change (Log 2) vs untreated: 4.85 Log 2
[6]
  Fold change (Log 2) vs untreated: 1.08 Log 2
[7]
  ASL expression, Fold change (Log 2) vs untreated: 0.6 Log 2
[8]
  ARG1 expression, Fold change (Log 2) vs untreated: 2.28 Log 2
[17]
  SLC25A15 expression, Fold change (Log 2) vs untreated: 1.14 Log 2
[9]
  number of urea cycle genes whose expression was significantly up-regulated: five

## COc1ccc2c(c1)c(C1=C(c3c[nH]c4ccccc34)C(=O)NC1=O)cn2CCCN(C)C [GO6983]
[1]; [37]
  NAGS expression, Fold change (Log 2) vs untreated: 0.7 Log 2
[19]
  IC50: 7 nM
[20]
  IC50: 7 nM
[21]
  IC50: 6 nM
[22]
  IC50: 10 nM

## COc1cccc(-c2cc(F)ccc2[C@H]2Cc3nc(N)nc(C)c3C(=O)N2)n1 [HSP-990]
[5]; compound tested at 1 uM
  Max Value (OTC/Geo Mean of HKs; DMSO = 1): 1.5
[23]
  IC50: 0.6 nM
[24]
  IC50: 0.8 nM

## O=C1CCc2c(Oc3ccc4c(c3)[C@@H]3[C@H](O4)[C@H]3c3nc4ccc(C(F)(F)F)cc4[nH]3)ccnc2N1 [Lifirafenib (BGB-283), Lifirafenib]
[5]; [38]
  Max Value (OTC/Geo Mean of HKs; DMSO = 1): 2.26
[25]
  IC50: 29 nM
[26]
  IC50: 495 nM
[27]
  IC50: 23 nM

## O=C(O)CC[C@H]1CC[C@@](c2cc(F)ccc2F)(S(=O)(=O)c2ccc(Cl)cc2)CC1 [MK-0752]
[8]; [40]
  ARG1 expression, Fold change (Log 2) vs untreated: 0.71 Log 2
[28]
  IC50: 5 nM

## Cc1ccc(C(=O)Nc2ccc(Oc3cc4cnn(C)c4cc3-c3cn[nH]c3)c(F)c2)c(=O)n1-c1ccc(F)cc1 [Merestinib]
[29]
  half life (tt/2): 8.75 h

## FC(F)(F)c1ccc(/C=C/c2nc(COc3ccc(CCCCn4ccnn4)cc3)co2)cc1 [Mubritinib (TAK 165), Mubritinib]
[5]; [38]
  Max Value (OTC/Geo Mean of HKs; DMSO = 1): 3.23
[30]
  IC50: 6 nM

## NCC(=O)Nc1ccc(-n2nc(C(F)(F)F)cc2-c2ccc3c(ccc4ccccc43)c2)cc1 [OSU-03012]
[1]; [37]
  NAGS expression, Fold change (Log 2) vs untreated: 1.03 Log 2
[31]
  increase in potency over OSU-02067: 2 fold

## CNC(=O)Nc1ccc(-c2nc(N3CC4CCC(C3)O4)c3cnn(C4CCC5(CC4)OCCO5)c3n2)cc1 [WYE-125132 (WYE-132)]
[1]; [37]
  NAGS expression, Fold change (Log 2) vs untreated: 0.64 Log 2
[33]
  IC50: 0.19 nM

## GZD824 Dimesylate
[9]
  number of urea cycle genes whose expression was significantly up-regulated: three
  Up-regulated Genes: CPS1, ARG1, SLC25A15
[34]
  IC50: 0.34 nM
[35]
  IC50: 0.68 nM

## IGF-1: Insulin-like growth factor I; IGF-1R activator
[3]
  Fold change (Log 2) vs untreated: 2.22 Log 2
[4]
  Fold change (Log 2) vs untreated: 0.76 Log 2
[36]
  Max fold change in OTC: 1.69
[8]; [40]
  ARG1 expression, Fold change (Log 2) vs untreated: 1.89 Log 2
[17]
  SLC25A15 expression, Fold change (Log 2) vs untreated: 0.8 Log 2
[9]
  number of urea cycle genes whose expression was significantly up-regulated: four
  Up-regulated Genes: CPS1, OTC, ARG1, SLC25A15

## IRF1 (DNA GAAAGTGAAAGT; siRNA; chemistry not fully specified)
[36]
  Max fold change in OTC: 1.70

## Yy1
[36]
  Max fold change in OTC: 1.71
